# Counter-ions that a name gives are not always drawn.
row,Structure (SMILES),melting point
1,"Cc1cccc(Cn2nnc3c(-c4ccco4)nc(N)nc32)n1 [Example 37, 7-(2-furyl)-3-(6-methyl-2-pyridylmethyl)-3H-[1,2,3]triazolo[4,5-d]pyrimidine-5-amine]",200.8 to 218.9 °C
2,"CC(C)(C)OC(=O)Oc1cc(F)c(Cn2nnc3c(-c4ccco4)nc(N)nc32)c(F)c1 [Example 148, tert-butyl (4-(5-amino-7-(2-furyl)-3H-[1,2,3]triazolo[4,5-d]pyrimidine-3-ylmethyl)-3,5-difluorophenyl)carbonate]",259.8 to 259.9 °C
3,"Nc1nc(-c2ccco2)c2nnn(CC(=O)Nc3ccccc3)c2n1 [Example 54, (5-amino-7-(2-furyl)-3H-[1,2,3]triazolo[4,5-d]pyrimidin-3-yl)-N-phenylacetamide]",292.2 to 292.3 °C
4,"Nc1nc(-c2ccco2)c2nnn(Cc3cc(F)cc(F)c3F)c2n1 [Example 168, 7-(2-furyl)-3-(2,3,5-trifluorobenzyl)-3H-[1,2,3]triazolo[4,5-d]pyrimidine-5-amine]",204 to 204.2 °C
5,"CC(C)(C)OC(=O)n1ccc2ccc(Cn3nnc4c(-c5ccco5)nc(N)nc43)cc21 [Example 146, tert-butyl 6-(5-amino-7-(2-furyl)-3H-[1,2,3]triazolo[4,5-d]pyrimidine-3-ylmethyl)indole-1-carboxylate]",180 to 180.5 °C
6,"CC(=O)NCc1cccc(Cn2nnc3c(-c4ccco4)nc(N)nc32)c1 [Example 68, N-(3-(5-amino-7-(2-furyl)-3H-[1,2,3]triazolo[4,5-d]pyrimidin-3-ylmethyl)benzyl)acetamide]",228.1 to 229.3 °C
7,"Cc1ccc(-c2nc(N)nc3c2nnn3Cc2cccc(N)c2C)o1 [Example 180, 3-(3-amino-2-methylbenzyl)-7-(5-methyl-2-furyl)-3H-[1,2,3]triazolo[4,5-d]pyrimidine-5-amine]",278.4 to 279.9 °C
8,"Nc1nc(-c2ccco2)c2nnn(CC(=O)O)c2n1 [Example 26, (5-Amino-7-(2-furyl)-3H-[1,2,3]triazolo[4,5-d]pyrimidin-3-yl)acetic acid]",291 to 291.1 °C
9,"Nc1nc(-c2ccco2)c2nnn(Cc3ccc(F)c(N)c3)c2n1 [Example 165, 3-(3-amino-4-fluorobenzyl)-7-(2-furyl)-3H-[1,2,3]triazolo[4,5-d]pyrimidine-5-amine]",259.7 to 259.8 °C
10,"Cc1noc(C)c1Cn1nnc2c(-c3ccco3)nc(N)nc21 [Example 91, 3-(3,5-dimethylisoxazol-4-ylmethyl)-7-(2-furyl)-3H-[1,2,3]triazolo[4,5-d]pyrimidine-5-amine]",284.3 to 284.5 °C
11,"COc1ccc([N+](=O)[O-])cc1Cn1nnc2c(-c3ccco3)nc(N)nc21 [Example 66, 7-(2-Furyl)-3-(2-methoxy-5-nitrobenzyl)-3H-[1,2,3]triazolo[4,5-d]pyrimidine-5-amine]",243.4 to 243.9 °C
12,"Nc1nc(-c2ccco2)c2nnn(CC(=O)c3ccccc3)c2n1 [Example 211, 2-(5-Amino-7-(2-furyl)-3H-[1,2,3]triazolo[4,5-d]pyrimidin-3-yl)-1-phenylethanone]",257.1 to 257.3 °C
13,"CC(C)(C)OC(=O)NCc1ccc(Cn2nnc3c(-c4ccco4)nc(N)nc32)cc1 [Example 140, tert-butyl N-(4-(5-amino-7-(2-furyl)-3H-[1,2,3]triazolo[4,5-d]pyrimidine-3-ylmethyl)benzyl)carbamate]",184 to 185.2 °C
14,"Cc1cnc(-c2nc(N)nc3c2nnn3Cc2ccccc2F)s1 [Example 38, 3-(2-fluorobenzyl)-7-(5-methyl-2-thiazolyl)-3H-[1,2,3]triazolo[4,5-d]pyrimidine-5-amine]",242 to 242.1 °C
15,"Nc1nc(-c2ccco2)c2nnn(Cc3ccc(Cl)c([N+](=O)[O-])c3)c2n1 [Example 110, 3-(4-chloro-3-nitrobenzyl)-7-(2-furyl)-3H-[1,2,3]triazolo[4,5-d]pyrimidine-5-amine]",247.4 to 247.5 °C
16,"Cc1cnccc1Cn1nnc2c(-c3ccco3)nc(N)nc21 [Example 126, 7-(2-furyl)-3-(3-methyl-4-pyridylmethyl)-3H-[1,2,3]triazolo[4,5-d]pyrimidine-5-amine]",229.6 to 230.3 °C
17,"CS(=O)(=O)Cc1cccc(Cn2nnc3c(-c4ccco4)nc(N)nc32)n1 [Example 238, 7-(2-furyl)-3-(6-methylsulphonylmethyl-2-pyridylmethyl)-3H-[1,2,3]triazolo[4,5-d]pyrimidine-5-amine]",238.2 to 238.6 °C
18,Nc1nc(-c2ccco2)c2nnn(Cc3ccc4nonc4c3)c2n1 [Example 111],244.1 to 244.6 °C
19,"Nc1nc(-c2ccco2)c2nnn(CC(=O)c3ccccc3[N+](=O)[O-])c2n1 [Example 235, 2-(5-amino-7-(2-furyl)-3H-[1,2,3]triazolo[4,5-d]pyrimidin-3-yl)-1-(2-nitrophenyl)ethanone]",231.6 to 231.7 °C
20,"Nc1nc(-c2ccco2)c2nnn(Cc3ccc(Cl)cc3[N+](=O)[O-])c2n1 [Example 119, 3-(4-chloro-2-nitrobenzyl)-7-(2-furyl)-3H-[1,2,3]triazolo[4,5-d]pyrimidine-5-amine]",> 230 °C
21,"Cc1csc(-c2nc(N)nc3c2nnn3Cc2cccc([N+](=O)[O-])c2)n1 [Example 109, 7-(4-methyl-2-thiazolyl)-3-(3-nitrobenzyl)-3H-[1,2,3]triazolo[4,5-d]pyrimidine-5-amine]",289.8 to 289.9 °C
22,"Cc1ccc(-c2nc(N)nc3c2nnn3Cc2cccs2)o1 [Example 61, 7-(5-methyl-2-furyl)-3-(2-thienylmethyl)-3H-[1,2,3]triazolo[4,5-d]pyrimidine-5-amine]",193.8 to 194.1 °C
23,"Nc1cccc(Cn2nnc3c(-c4cncs4)nc(N)nc32)c1 [Example 50, 3-(3-aminobenzyl)-7-(5-thiazolyl)-3H-[1,2,3]triazolo[4,5-d]pyrimidine-5-amine]",228.2 to 228.3 °C

# Further lines, results first:
row,melting point,Structure (SMILES)
1,152 to 153.5 °C,"COCc1cccc(Cn2nnc3c(-c4ccc(C)o4)nc(N)nc32)n1 [Example 183, 3-(6-methoxymethyl-2-pyridylmethyl)-7-(5-methyl-2-furyl)-3H-[1,2,3]triazolo[4,5-d]pyrimidine-5-amine]"
2,288.1 to 288.2 °C,"Cc1cnc(Cn2nnc3c(-c4ccco4)nc(N)nc32)cn1 [Example 106, 7-(2-furyl)-3-(5-methyl-2-pyrazinylmethyl)-3H-[1,2,3]triazolo[4,5-d]pyrimidine-5-amine]"
3,279.3 to 281.3 °C,"Nc1cccc(Cn2nnc3c(-c4ccn[nH]4)nc(N)nc32)c1 [Example 175, 3-(3-aminobenzyl)-7-(1H-pyrazol-3-yl)-3H-[1,2,3]triazolo[4,5-d]pyrimidine-5-amine]"
4,235.8 to 236.5 °C,"Cc1ccc(-c2nc(N)nc3c2nnn3Cc2cc(N)ccc2F)o1 (as salt: hydrochloride) [Example 84, 3-(5-amino-2-fluorobenzyl)-7-(5-methyl-2-furyl)-3H-[1,2,3]triazolo[4,5-d]pyrimidine-5-amine hydrochloride]"
5,221.4 to 221.5 °C,"CNCc1cccc(Cn2nnc3c(-c4ccco4)nc(N)nc32)n1 (as salt: hydrochloride) [Example 226, 7-(2-Furyl)-3-(6-(N-methylamino)methyl-2-pyridylmethyl)-3H-[1,2,3]triazolo[4,5-d]pyrimidine-5-amine]"
6,248.1 to 249 °C,"Cc1ccc(-c2nc(N)nc3c2nnn3Cc2ccc([N+](=O)[O-])cc2)o1 [Example 268, 7-(5-methyl-2-furyl)-3-(4-nitrobenzyl)-3H-[1,2,3]triazolo[4,5-d]pyrimidine-5-amine]"
7,192.3 to 193.5 °C,"Nc1nc(-c2ccco2)c2nnn(Cc3cccc4[nH]ccc34)c2n1 [Example 139, 7-(2-furyl)-3-(4-indolylmethyl)-3H-[1,2,3]triazolo[4,5-d]pyrimidine-5-amine]"
8,279.9 to 280.3 °C,"NCc1cccc(Cn2nnc3c(-c4ccn[nH]4)nc(N)nc32)c1 [Example 101, 3-(3-Aminomethylbenzyl)-7-(1H-pyrazol-3-yl)-3H-[1,2,3]triazolo[4,5-d]pyrimidine-5-amine]"
9,264.5 to 264.8 °C,Nc1nc(-c2ccco2)c2nnn(Cc3cc([N+](=O)[O-])cc([N+](=O)[O-])c3)c2n1
10,258.6 to 258.7 °C,"Nc1nc(-c2ccco2)c2nnn(Cc3cc(F)ccc3[N+](=O)[O-])c2n1 [Example 155, 3-(5-fluoro-2-nitrobenzyl)-7-(2-furyl)-3H-[1,2,3]triazolo[4,5-d]pyrimidine-5-amine]"
11,253.6 to 254 °C,"CC(=O)Nc1ccc(Cn2nnc3c(-c4ccco4)nc(N)nc32)cc1 [Example 193, N-(4-(5-amino-7-(2-furyl)-3H-[1,2,3]triazolo[4,5-d]pyrimidin-3-ylmethyl)phenyl)acetamide]"
12,215 to 215.3 °C,"Nc1nc(-c2ccco2)c2nnn(Cc3csc(-c4ccccc4)n3)c2n1 [Example 108, 7-(2-furyl)-3-(2-phenylthiazol-4-ylmethyl)-3H-[1,2,3]triazolo[4,5-d]pyrimidine-5-amine]"
13,254.3 to 254.5 °C,"Cc1nc(-c2nc(N)nc3c2nnn3Cc2cccc(N)c2)sc1C [Example 240, 3-(3-aminobenzyl)-7-(4,5-dimethyl-2-thiazolyl)-3H-[1,2,3]triazolo[4,5-d]pyrimidine-5-amine]"
14,187.3 to 187.7 °C,"Cc1cccc(Cn2nnc3c(-c4ccco4)nc(N)nc32)c1 [Example 23, 7-(2-furyl)-3-(3-methylbenzyl)-3H-[1,2,3]triazolo[4,5-d]pyrimidine-5-amine]"
15,251.2 to 251.5 °C,"Nc1cccc(Cn2nnc3c(-c4ccccc4)nc(N)nc32)c1 [Example 151, 3-(3-aminobenzyl)-7-phenyl-3H-[1,2,3]triazolo[4,5-d]pyrimidine-5-amine]"
16,255.6 to 255.7 °C,"Cc1ccc(-c2nc(N)nc3c2nnn3Cc2cccc([N+](=O)[O-])c2C)o1 [Example 267, 7-(5-methyl-2-furyl)-3-(2-methyl-3-nitrobenzyl)-3H-[1,2,3]triazolo[4,5-d]pyrimidine-5-amine]"
17,134.5 to 134.6 °C,"CC(C)OCc1cccc(Cn2nnc3c(-c4ccco4)nc(N)nc32)n1 [Example 247, 7-(2-furyl)-3-(6-isopropoxymethyl-2-pyridylmethyl)-3H-[1,2,3]triazolo[4,5-d]pyrimidine-5-amine]"

# Reference: US7589097B2, “Triazol[4,5-d] pyramidine derivatives and their use as purinergic receptor antagonists” (Vernalis Research Limited, priority 2001, dated 2009)
